This note sets out measurements from patent US20230109839A1, “THERAPEUTIC AGENT FOR TAUOPATHIES” (SUMITOMO PHARMA CO., LTD., priority 2020, published 2023).

The first experiment addresses T1, human Nav1.1 (Homo sapiens, UniProt P35498).
T1 construct: host or cells: HEK293
The experiment is described as follows: Amplification of Nav1.1-derived voltage-gated sodium current (Nav1.1 current), automated patch clamp (Test 1). In kind it is cell-based. The conditions noted are these: Concentration for evaluation 1 μM; HEK293 cell line stably expressing human Nav1.1. In short, it runs like this:
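Compound-induced change in ramp-evoked sodium current peak and AUC was expressed as 100×post/pre ratio minus 100. Recordings used automated patch clamp in voltage-clamp mode on a stable human Nav1.1 HEK293 line, including only cells above 500 pA. Compounds were delivered in extracellular fluid containing 1% DMSO.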
On the technique in general: In patch-clamp work, channel activity is measured electrically.
As to `COCCNCc1cccc2c1CCN2C(=O)Cn1nc(C2=CCC(C)CC2)ccc1=O` (stereo not drawn) [Example 314], the “Nav1.1 current amplification rate (%)” value turned out to be 9%.
With `CN1CC(c2cccc3c2CCN3C(=O)Cn2ncc3ncc(N(C)C4CCC4)nc32)C1` [Example 698], the “Nav1.1 current amplification rate (%)” value was found to be 18%.
Regarding `CC1CC=C(c2cnc3cnn(CC(=O)Nc4ccc5ncnn5c4)c3n2)CC1` (stereo not drawn) [Example 653], the “Nav1.1 current amplification rate (%)” value is on record as 173%.
Turning to `CC1CC=C(c2ccc(=O)n(CC(=O)N3CCc4c(Cn5cncn5)cccc43)n2)CC1` (stereo not drawn) [Example 294], the “Nav1.1 current amplification rate (%)” value is given as 271%.
As to `CC1CC=C(c2ccc(=O)n(CC(=O)Nc3ccc4nccnc4c3)n2)CC1` (stereo not drawn) [Example 354], the “Nav1.1 current amplification rate (%)” value is 123%.
The same measure, in the same setting: to `Cc1nc2cc(NC(=O)Cn3ncc4ncc(N(C)C5CCCC5)nc43)cnc2s1` [Example 676] belongs 36%.
Turning to `CC1CC=C(c2ccc(=O)n(CC(=O)N3CCc4c(CN5CCCCC5)cccc43)n2)CC1` (stereo not drawn) [Example 282], the “Nav1.1 current amplification rate (%)” value amounted to 26%.
As to `CN(c1cnc2cnn(CC(=O)N3CCc4c(C#N)cccc43)c2n1)C1CC1` [Example 715], the “Nav1.1 current amplification rate (%)” value was 13%.
For `CN(c1cnc2cnn(CC(=O)N3CCc4c(C5CC5)cccc43)c2n1)C1CC1` [Example 730], the “Nav1.1 current amplification rate (%)” value amounted to 133%.
On to `CC1CC=C(c2ccc(=O)n(CC(=O)Nc3ccc(C#N)nc3)n2)CC1` (stereo not drawn) [Example 360], for which the “Nav1.1 current amplification rate (%)” value was 200%.
On to `CN(CC1CC(F)(F)C1)c1cnc2cnn(CC(=O)Nc3ccn4ncnc4c3)c2n1` [Example 624], for which the “Nav1.1 current amplification rate (%)” value came out at 61%.
Regarding `Cc1ccc(-c2ncc3cnn(CC(=O)Nc4ccn5ncnc5c4)c3n2)cc1` [Example 787], the “Nav1.1 current amplification rate (%)” value worked out at 50%.
As for `Cc1cc(NC(=O)Cn2nc(C3=CCC(C)CC3)ccc2=O)cc2ncnn12` (stereo not drawn) [Example 352], the “Nav1.1 current amplification rate (%)” value came to 155%.
The same measure, in the same setting: to `COCCN(C)Cc1cccc2c1CCN2C(=O)Cn1nc(C2=CCC(C)CC2)ccc1=O` (stereo not drawn) [Example 275] belongs 46%.

The same experiment, now with this note: Concentration for evaluation 3 μM; HEK293 cell line stably expressing human Nav1.1.
With `CC1CC=C(c2ccc(=O)n(CC(=O)Nc3ccc4oc(CN5CCC5)nc4c3)n2)CC1` (stereo not drawn) [Example 333], the “Nav1.1 current amplification rate (%)” value came to 25%.
Take `CC1CC=C(c2ccc(=O)n(CC(=O)N3CCc4c(C5=CCNC5)cccc43)n2)CC1` (stereo not drawn) [Example 265]: the “Nav1.1 current amplification rate (%)” value is 110%.
Regarding `CC1CC=C(c2ccc(=O)n(CC(=O)N3CCc4c(-c5cn[nH]c5)cccc43)n2)CC1` (stereo not drawn) [Example 254], the “Nav1.1 current amplification rate (%)” value turned out to be 309%.
Take `CC1CC=C(c2ccc(=O)n(CC(=O)N3CCc4c(CN5CCCC5)cccc43)n2)CC1` (stereo not drawn) [Example 271]: the “Nav1.1 current amplification rate (%)” value is listed as 48%.

Still in this experiment, the particulars now being: Concentration for evaluation 10 μM; HEK293 cell line stably expressing human Nav1.1.
For `Cc1noc2cc(NC(=O)Cn3nc(N4CCC(C)CC4)ccc3=O)ccc12` [Example 84], the “Nav1.1 current amplification rate (%)” value was 315%.
Turning to `CC1CC=C(c2ccc(=O)n(CC(=O)N3CC=C(c4cncc(F)c4)CC3)n2)CC1` (stereo not drawn) [Example 397], the “Nav1.1 current amplification rate (%)” value stood at 273%.
For the molecule `CC1CCN(c2ccc(=O)n(CC(=O)Nc3ccc4c(c3)NC(=O)C4)n2)CC1` [Example 86], the “Nav1.1 current amplification rate (%)” value is recorded as 73%.
`CN(c1cnc2cnn(CC(=O)Nc3cccnc3)c2n1)C1CC1` [Example 726]: the “Nav1.1 current amplification rate (%)” value turned out to be 31%.
Same read-out and setting: to `N#Cc1ccc(NC(=O)Cn2nc(N3CCCCCCC3)ccc2=O)cc1` [Example 12] belongs 241%; to `CC1CCN(c2ccc(=O)n(CC(=O)Nc3cccc(-n4ccnc4)c3)n2)CC1` [Example 67], 177%.
Take `CN(c1cnc2cnn(CC(=O)Nc3cc4cccnc4cn3)c2n1)C1CC1` [Example 729]: the “Nav1.1 current amplification rate (%)” value stood at 55%.
For `Cc1c(N2CCC(C)CC2)nn(CC(=O)Nc2ccc(C#N)cc2)c(=O)c1C` [Example 35], the “Nav1.1 current amplification rate (%)” value was found to be 301%.
Same read-out and setting: to `COc1cc(=O)n(CC(=O)N2CCc3c(N4CCOCC4)cccc32)nc1C1=CCC(C)(C)CC1` [Example 470] belongs 522%.
Take `CC1CCN(c2ccc(=O)n(CC(=O)Nc3ccc(C#N)nc3)n2)CC1` [Example 51]: the “Nav1.1 current amplification rate (%)” value came to 196%.
As for `N#Cc1ccc(NC(=O)Cn2nc(N3CCCC(C(N)=O)C3)ccc2=O)cc1` (stereo not drawn) [Example 8], the “Nav1.1 current amplification rate (%)” value stood at 4%.

The experiment is the same for the next values; noted with them: Concentration for evaluation 50 μM; HEK293 cell line stably expressing human Nav1.1.
As to `N#Cc1ccc(-c2ncc3cnn(CC(=O)Nc4ccn5ncnc5c4)c3n2)s1` [Example 778], the “Nav1.1 current amplification rate (%)” value is 13%.

Staying with this experiment, now noted: HEK293, Concentration for evaluation 1 μM; HEK293 cell line stably expressing human Nav1.1; read-out: Nav1.1 current amplification rate (%).
Consider `Cc1cc(NC(=O)Cn2ncc3ncc(N(C)CC4CC4)nc32)cc2ncnn12` [Example 745], for which the activation at 1 µM worked out at 43%.

Staying with this experiment, now noted: HEK293, Concentration for evaluation 3 μM; HEK293 cell line stably expressing human Nav1.1; read-out: Nav1.1 current amplification rate (%).
In the case of `Cc1nn(CC(=O)Nc2ccc3ncnn3c2)c2nc(N3CCC4(CCC4)C3)cnc12` [Example 739], the activation at 3 µM stood at 10%.
As to `O=C(Cn1ncc2ncc(C3CCC3)nc21)Nc1ccn2ncnc2c1` [Example 576, 2-(6-Cyclobutyl-1H-pyrazolo[3,4-b]pyrazin-1-yl)-N-([1,2,4]triazolo[1,5-a]pyridin-7-yl)acetamide], the activation at 3 µM came to 14%.

The same experiment, now with this note: HEK293, Concentration for evaluation 10 μM; HEK293 cell line stably expressing human Nav1.1; read-out: Nav1.1 current amplification rate (%).
Consider `CN(C)c1cc(N2CCC3(CCC3)C2)nn(CC(=O)Nc2ccn3ccnc3c2)c1=O` [Example 210], for which the activation at 10 µM is 178%.

Staying with this experiment, now noted: HEK293, Concentration for evaluation 50 μM; HEK293 cell line stably expressing human Nav1.1; read-out: Nav1.1 current amplification rate (%).
Take `O=C(Cn1ncc2cnc(OCCC3CC3)nc21)Nc1ccn2ncnc2c1` [Example 762, 2-[6-(2-Cyclopropylethoxy)-1H-pyrazolo[3,4-d]pyrimidin-1-yl]-N-([1,2,4]triazolo[1,5-a]pyridin-7-yl)acetamide]: the activation at 50 µM stood at 37%.

Staying with this experiment, now noted: HEK293, concentration for evaluation 1 μM; HEK293 stably expressing human Nav1.1; read-out: Nav1.1 current amplification rate (%).
With `CN(c1ncc2cnn(CC(=O)Nc3ccc(C#N)nc3)c2n1)C1CC2(CC2)C1` [Example 845], the activation at 1 µM was found to be 76%.
Consider `CC1CCN(c2ncc3cnn(CC(=O)Nc4ccn5ccnc5c4)c3n2)CC1` [Example 831], for which the activation at 1 µM was 128%.
Regarding `CN(c1ccc2cnn(CC(=O)Nc3ccc4ncncc4c3)c2n1)C1CCCC1` [Example 892], the activation at 1 µM turned out to be 39%.
`CN(c1ccc2cnn(CC(=O)Nc3cnc4cccnc4c3)c2n1)C1CC1` [Example 888]: the activation at 1 µM worked out at 101%.
Consider `Cc1cc(NC(=O)Cn2ncc3cnc(N(C)C4CC4)nc32)cc2ncnn12` [Example 836], for which the activation at 1 µM was determined as 19%.
Same read-out and setting: to `CC1CC=C(c2ncc3cnn(CC(=O)Nc4ccn5ccnc5c4)c3n2)CC1` (stereo not drawn) [Example 832] belongs 204%.

Still in this experiment, the particulars now being: concentration for evaluation 1 μM; HEK293 stably expressing human Nav1.1.
In the case of `O=C(Cn1ncc2ccc(C3=COCCC3)nc21)Nc1ccn2ccnc2c1` [Example 869], the “Nav1.1 current amplification rate (%)” value amounted to 17%.
In the case of `O=C(Cn1ncc2cnc(C3=CCC(F)(F)CC3)nc21)Nc1ccc2cncnc2c1` [Example 810], the “Nav1.1 current amplification rate (%)” value came to 86%.
On the same count and under the same terms, to `CC1CC=C(c2ccc3cnn(CC(=O)Nc4ccn5ncnc5c4)c3n2)CC1` (stereo not drawn) [Example 852] belongs 111%.
Regarding `CN(c1ncc2cnn(CC(=O)Nc3ccn4ncnc4c3)c2n1)C1CC2(CC2)C1` [Example 802], the “Nav1.1 current amplification rate (%)” value is reported as 111%.
Same read-out and setting: to `CN(c1ncc2cnn(CC(=O)Nc3ccn4ncnc4c3)c2n1)C1CCC1` [Example 797] belongs 66%.

Still in this experiment, the particulars now being: concentration for evaluation 10 μM; HEK293 stably expressing human Nav1.1.
Consider `CC1(C)CCN(c2ncc3cnn(CC(=O)Nc4ccc5cncnc5c4)c3n2)CC1` [Example 809], for which the “Nav1.1 current amplification rate (%)” value turned out to be 64%.

The experiment is the same for the next values; noted with them: concentration for evaluation 50 μM; HEK293 stably expressing human Nav1.1.
For `CN(c1ncc2cnn(CC(=O)Nc3ccc4ncnn4c3)c2n1)C1CC1` [Example 818], the “Nav1.1 current amplification rate (%)” value worked out at 195%.
